The values that follow come from ChEMBL document CHEMBL4251612, “Naturally occurring Diels-Alder-type adducts from Morus nigra as potent inhibitors of Mycobacterium tuberculosis protein tyrosine phosphatase B” (Eur J Med Chem, 2018).

Assay [1] has as its target T1, Phosphotyrosine protein phosphatase (Mycobacterium tuberculosis, UniProt A0A045ISB3).
T1 sequence (A0A045ISB3 whole entry): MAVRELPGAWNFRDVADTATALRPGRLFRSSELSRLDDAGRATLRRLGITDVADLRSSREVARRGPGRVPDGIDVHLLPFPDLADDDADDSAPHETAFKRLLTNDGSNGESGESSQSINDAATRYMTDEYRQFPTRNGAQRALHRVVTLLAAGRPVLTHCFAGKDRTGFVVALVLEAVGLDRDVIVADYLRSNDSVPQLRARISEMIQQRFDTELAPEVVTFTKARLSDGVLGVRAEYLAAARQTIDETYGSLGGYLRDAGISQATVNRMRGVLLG
The assay is described as follows: Inhibition of Mycobacterium tuberculosis PtpB using p-nitrophenyl phosphate as substrate preincubated for 10 mins followed by substrate addition measured every minute for 10 mins by UV-VIS spectrophotometric analysis.

Assay [2] concerns the target T2, Tyrosine-protein phosphatase non-receptor type 12 (Homo sapiens, UniProt Q05209).
T2 sequence (Q05209 whole entry): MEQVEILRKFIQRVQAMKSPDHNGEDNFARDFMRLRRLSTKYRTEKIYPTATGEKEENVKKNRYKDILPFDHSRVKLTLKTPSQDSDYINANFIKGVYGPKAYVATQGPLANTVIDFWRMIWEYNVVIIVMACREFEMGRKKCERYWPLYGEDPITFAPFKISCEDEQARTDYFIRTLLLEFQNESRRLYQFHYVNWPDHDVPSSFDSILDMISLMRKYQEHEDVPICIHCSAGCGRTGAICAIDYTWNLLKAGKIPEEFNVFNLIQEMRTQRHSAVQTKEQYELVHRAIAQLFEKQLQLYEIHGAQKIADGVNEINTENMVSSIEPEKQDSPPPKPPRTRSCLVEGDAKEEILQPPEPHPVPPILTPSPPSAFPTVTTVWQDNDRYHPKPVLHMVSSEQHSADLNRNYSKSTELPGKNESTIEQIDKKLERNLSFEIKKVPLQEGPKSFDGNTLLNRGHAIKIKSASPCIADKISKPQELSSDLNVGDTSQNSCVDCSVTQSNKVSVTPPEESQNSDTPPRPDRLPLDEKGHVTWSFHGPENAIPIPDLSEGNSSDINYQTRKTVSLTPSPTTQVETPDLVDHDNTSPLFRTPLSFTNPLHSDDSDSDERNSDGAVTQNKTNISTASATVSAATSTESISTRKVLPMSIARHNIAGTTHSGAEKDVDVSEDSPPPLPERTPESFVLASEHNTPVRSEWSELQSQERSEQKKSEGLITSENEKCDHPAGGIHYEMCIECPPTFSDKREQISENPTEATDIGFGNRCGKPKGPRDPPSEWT
The assay is described as follows: Inhibition of PTP-PEST (unknown origin) using p-nitrophenyl phosphate as substrate preincubated for 10 mins followed by substrate addition measured every minute for 10 mins by UV-VIS spectrophotometric analysis.

Assay [3] deals with T3, Low molecular weight protein-tyrosine phosphatase A (Mycobacterium tuberculosis, UniProt P9WIA1).
T3 sequence (P9WIA1 whole entry): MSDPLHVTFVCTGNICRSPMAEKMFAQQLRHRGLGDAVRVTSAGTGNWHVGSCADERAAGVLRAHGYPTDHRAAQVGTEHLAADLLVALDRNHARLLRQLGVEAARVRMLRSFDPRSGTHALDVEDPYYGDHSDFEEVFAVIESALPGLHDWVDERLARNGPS
The assay is described as follows: Inhibition of Mycobacterium tuberculosis PtpA using p-nitrophenyl phosphate as substrate preincubated for 10 mins followed by substrate addition measured every minute for 10 mins by UV-VIS spectrophotometric analysis.

In assay [4] the target is T4, Tyrosine-protein phosphatase non-receptor type 1 (Homo sapiens, UniProt P18031).
T4 sequence (P18031 whole entry): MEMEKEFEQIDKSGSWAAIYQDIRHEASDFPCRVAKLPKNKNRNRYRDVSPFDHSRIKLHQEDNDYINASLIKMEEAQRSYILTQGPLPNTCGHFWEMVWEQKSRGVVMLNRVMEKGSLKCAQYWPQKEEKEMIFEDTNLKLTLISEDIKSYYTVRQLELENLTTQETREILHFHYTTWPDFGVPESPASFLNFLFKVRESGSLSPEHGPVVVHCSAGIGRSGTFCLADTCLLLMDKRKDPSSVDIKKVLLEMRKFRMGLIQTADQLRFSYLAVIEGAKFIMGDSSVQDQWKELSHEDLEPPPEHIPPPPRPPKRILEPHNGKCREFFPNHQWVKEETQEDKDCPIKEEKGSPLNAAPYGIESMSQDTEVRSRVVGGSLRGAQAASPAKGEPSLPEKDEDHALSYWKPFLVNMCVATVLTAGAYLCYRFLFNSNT
The assay is described as follows: Inhibition of human PTP1B using p-nitrophenyl phosphate as substrate preincubated for 10 mins followed by substrate addition measured every minute for 10 mins by UV-VIS spectrophotometric analysis.

Assay [5] concerns the target T5, Tyrosine-protein phosphatase non-receptor type 22 (Homo sapiens, UniProt Q9Y2R2).
T5 sequence (Q9Y2R2 whole entry): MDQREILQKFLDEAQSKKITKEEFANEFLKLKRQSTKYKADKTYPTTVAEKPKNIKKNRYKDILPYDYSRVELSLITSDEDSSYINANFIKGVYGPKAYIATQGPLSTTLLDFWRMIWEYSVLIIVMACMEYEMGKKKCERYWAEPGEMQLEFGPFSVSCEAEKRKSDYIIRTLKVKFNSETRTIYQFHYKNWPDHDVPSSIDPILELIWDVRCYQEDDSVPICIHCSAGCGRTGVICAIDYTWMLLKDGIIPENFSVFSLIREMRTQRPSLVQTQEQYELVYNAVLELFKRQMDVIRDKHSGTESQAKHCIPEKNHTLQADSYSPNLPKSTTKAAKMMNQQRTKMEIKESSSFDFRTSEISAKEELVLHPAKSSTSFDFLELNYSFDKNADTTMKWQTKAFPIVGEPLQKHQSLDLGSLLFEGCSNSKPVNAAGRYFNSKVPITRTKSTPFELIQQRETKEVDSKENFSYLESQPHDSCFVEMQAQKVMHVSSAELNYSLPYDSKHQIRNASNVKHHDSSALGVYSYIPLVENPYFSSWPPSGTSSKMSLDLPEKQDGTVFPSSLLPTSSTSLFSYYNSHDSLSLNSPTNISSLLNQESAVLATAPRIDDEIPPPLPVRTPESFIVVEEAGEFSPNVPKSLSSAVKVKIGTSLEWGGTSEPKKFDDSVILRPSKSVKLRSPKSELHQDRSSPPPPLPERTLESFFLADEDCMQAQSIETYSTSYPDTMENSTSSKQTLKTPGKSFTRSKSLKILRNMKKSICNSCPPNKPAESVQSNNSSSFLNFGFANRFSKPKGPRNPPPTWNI
The assay is described as follows: Inhibition of LYP (unknown origin) using p-nitrophenyl phosphate as substrate preincubated for 10 mins followed by substrate addition measured every minute for 10 mins by UV-VIS spectrophotometric analysis.

Turning to `CC(C)=CCc1c(O)ccc(C(=O)[C@H]2[C@@H](c3c(O)cc(/C=C/c4ccc(O)cc4O)cc3O)C=C(C)C[C@@H]2c2ccc(O)cc2O)c1O`, in assay [1], half-maximal inhibition (IC50) was put at 1.9 µM and the affinity, expressed as Ki, was 1600 nM.
In the case of `CC(C)=CCc1c(O)cc2c(c1O)C(=O)C[C@@H](c1cc3c(cc1O)OC(C)(C)C=C3)O2` [CUDRAFLAVANONE A], the IC50 stood at 18.6 µM in assay [2]; 2.74 µM in assay [3]; 4.31 µM in assay [4]; 5.07 µM in assay [1]; 9.54 µM in assay [5].
Taken in the same sequence, the figures for `O=c1cc(-c2ccc(O)cc2O)oc2cc(O)cc(O)c12` [NORARTOCARPETIN] were 20.9 µM, 12 µM, 5.18 µM, 1.2 µM and 30.3 µM.
For `CC1=C[C@@H](c2c(O)ccc([C@@H]3CC(=O)c4c(O)cc(O)cc4O3)c2O)[C@H](C(=O)c2ccc(O)cc2O)[C@@H](c2ccc(O)cc2O)C1`, the IC50 is 18.6 µM in assay [2]; 14 µM in assay [3]; 7.98 µM in assay [4]; 4.7 µM in assay [1]; 12.1 µM in assay [5].
As to `CC(C)=CCc1c(-c2ccc(O)cc2O)oc2c3c(cc(O)c2c1=O)OC(C)(C)C=C3` [MORUSIN], the half-maximal inhibitory concentration (IC50) in assay [2] was more than 100 µM; in assay [3] it was 4.65 µM; in assay [4], 10.3 µM; in assay [1] it was 5.26 µM; in assay [5] it was 15 µM.
Take `Oc1cc(O)cc(/C=C/c2ccc(O)cc2O)c1` [OXYRESVERATROL]: the 50% inhibitory concentration (IC50) was more than 100 µM in assay [2], 67.2 µM in assay [3], 27.1 µM in assay [4] and 31.5 µM in assay [5].
For `CC(C)=CCc1c(O)ccc(C(=O)[C@H]2[C@@H](c3c(O)cc(-c4cc5ccc(O)cc5o4)cc3O)C=C(C)C[C@@H]2c2ccc(O)cc2O)c1O` [CHALCOMORACIN], the IC50 in assay [2] amounted to 8.52 µM; in assay [3] it was 2.43 µM; in assay [4] it was 1.94 µM; in assay [1] it was 1.43 µM; in assay [5], 7.29 µM.

What is called IC50 is the point on the concentration scale where inhibition reaches its midpoint. A higher IC50 goes with weaker potency in that assay. Usually Ki stands for a dissociation constant, usually derived from enzyme kinetics or from competition with a known ligand. A high value points to lower affinity.
